According to publication PMC7643960 (PLoS ONE, 2020):
pIC50: −log10 of the molar value. Values joined by “and” are separate entries in the source; they are usually repeats but may differ in a detail not shown here. Identical values can stand only once.

Tests used:
Type in all cases: cell-based, horse
[1] = test system: primary equine dermal fibroblasts PriFi2; assay: MTS cytotoxicity assay; conditions: mean (95% CI)
Method: (§1) All cells used for the experiments originate from different horses. Primary EMM cells (MelDuWi) and primary equine dermal fibroblasts (PriFi1, PriFi2) belong to the cell culture stock of the Clinic for Horses, University of Veterinary Medicine Hannover, Foundation, Hannover, Germany.
(§2) The cytotoxicity of the compounds was assessed by the CellTiter 96® AQueous One Solution Cell Proliferation Assay (MTS) (Promega GmbH, Mannheim, Germany) as reported. In brief, in order to reach cell confluence within 48 h, cells were seeded into 96-well plates in adequate densities (MelDuWi 30,000 cells/well; PriFi1, PriFi2, eRGO1 20,000 cells/well; sRGO1and sRGO2 15,000 cells/well). […] The formazan dye generated by the metabolic active cells was quantified photometrically. Cytotoxicity assays were performed in six to nine biological replicates with two technical replicates for each combination of cell type, incubation time and compound concentration.
(§3) Technical duplicates with a coefficient of variation of more than 20% were excluded from the cell assay analysis. […] Additional statistical data analysis was conducted with R 3.5.1.. A generalized additive model was fitted for each test (MTS and CVS) and cell type comparison (primary EMM cells and fibroblasts, and primary ES cells and fibroblasts) using the ‘mgcv’ package. Compound concentrations and the duration of incubation were modeled as tensor product smooth interacting with compound and cell line. Cell passage was added as a random effect. An appropriate distribution was selected by the visual inspection of residuals. The p-values were obtained by performing a Wald test for each parameter. Statistical significance was set at 0.05.

primary EMM cells eRGO1 [2] = assay: MTS cytotoxicity assay; conditions: mean (95% CI)
Method: as §1, §2, §3

[3] = test system: primary equine dermal fibroblasts PriFi1; assay: MTS cytotoxicity assay; conditions: mean (95% CI)
Method: as §1, §2, §3

primary ES cells sRGO2 [4] = assay: MTS cytotoxicity assay; conditions: mean (95% CI)
Method: as §1, §2, §3

[5] = test system: primary EMM cells MelDuWi; assay: MTS cytotoxicity assay; conditions: mean (95% CI)
Method: as §1, §2, §3

primary ES cells sRGO1 [6] = assay: MTS cytotoxicity assay; conditions: mean (95% CI)
Method: as §1, §2, §3

EMM cells MelDuWi = assay: AnnexinV-FITC/propidium iodide staining, flow cytometry; conditions: double IC50 concentration
Method: (§4) Approximately 7.5 × 10^5 cells (MelDuWi) and 1.0 × 10^6 cells (PriFri2 and sRGO2) were seeded in 25 cm^2 cell culture flasks. […] Following 24 and 48 h of incubation, cells were harvested by mild trypsinization and washed twice with PBS buffer (containing Mg^2+ and Ca^2+). Cells (1.0 × 10^6) were resuspended in AnnexinV binding buffer (BioLegend®, San Diego, US) to a concentration of 1.0 ‧ 10^6 cells/mL. Approximately 100,000 cells were stained with propidium iodide solution ([…], 1 mg/mL) and FITC AnnexinV solution ([…], BioLegend®) for 15 min in the dark at room temperature. After the addition of Annexin V binding buffer ([…]), the suspension was analyzed using the Attune® FACS machine (Life Technologies). After gating for living cells, the data from detectors BL-1A and BL-3A were collected. A total of 20,000 events were collected from each sample and technical duplicates were measured.

[7] = test system: equine dermal fibroblasts PriFri2; assay: as above; conditions: for AnnexinV staining: Living cells / AnnexinV staining: early apop / AnnexinV staining: late apop / AnnexinV staining: necrotic: double IC50 concentration
Method: as §4

[8] = test system: primary equine dermal fibroblasts PriFi2; assay: crystal violet staining assay (CVS), proliferation; conditions: mean (95% CI)
Method: as §1
(§5) The proliferation assay was performed as published. […] Control cells were treated with medium only. The proportion of cells treated relative to untreated controls was determined by crystal violet staining and photometric absorbance measurement at the incubation time points mentioned above. Proliferation assays were performed in six to eight biological replicates with two technical replicates for each combination of cell type, incubation time and compound concentration.
as §3

primary EMM cells eRGO1 [9] = assay: crystal violet staining assay (CVS), proliferation; conditions: mean (95% CI)
Method: as §1, §5, §3

[10] = test system: primary equine dermal fibroblasts PriFi1; assay: crystal violet staining assay (CVS), proliferation; conditions: mean (95% CI)
Method: as §1, §5, §3

primary ES cells sRGO2 [11] = assay: crystal violet staining assay (CVS), proliferation; conditions: mean (95% CI)
Method: as §1, §5, §3

[12] = test system: primary EMM cells MelDuWi; assay: crystal violet staining assay (CVS), proliferation; conditions: mean (95% CI)
Method: as §1, §5, §3

primary ES cells sRGO1 [13] = assay: crystal violet staining assay (CVS), proliferation; conditions: mean (95% CI)
Method: as §1, §5, §3

[14] = equine dermal fibroblasts, 24 h, versus control

C=C(C)[C@@H]1CC[C@]2(COS(N)(=O)=O)CC[C@]3(C)[C@H](CC[C@@H]4[C@@]5(C)CC[C@H](OS(N)(=O)=O)C(C)(C)[C@@H]5CC[C@]43C)[C@@H]12 [BBS, (3β)-Lup-20(29)-ene-3,28-diol, 3,28-disulfamate]
pIC50 ([1]; PriFi2, 5 h): < 4.00 | pIC50 ([1]; PriFi2, 24 h): 4.11 | pIC50 ([1]; PriFi2, 48 h): 4.21 | pIC50 ([1]; PriFi2, 96 h): 4.70 | pIC50 (primary EMM cells eRGO1 [2]; eRGO1, 5 h): < 4.00 | pIC50 (primary EMM cells eRGO1 [2]; eRGO1, 24 h): 4.33 | pIC50 (primary EMM cells eRGO1 [2]; eRGO1, 48 h): 4.49 | pIC50 (primary EMM cells eRGO1 [2]; eRGO1, 96 h): 4.80 | pIC50 ([3]; PriFi1, 5 h): < 4.00 | pIC50 ([3]; PriFi1, 24 h): 4.23 | pIC50 ([3]; PriFi1, 48 h): 4.46 | pIC50 ([3]; PriFi1, 96 h): 4.55 | pIC50 (primary ES cells sRGO2 [4]; sRGO2, 5 h): < 4.00 | pIC50 (primary ES cells sRGO2 [4]; sRGO2, 24 h): 4.35 | pIC50 (primary ES cells sRGO2 [4]; sRGO2, 48 h): 4.55 | pIC50 ([5]; 5 h): < 4.00 | pIC50 ([5]; 24 h): 4.22 | pIC50 ([5]; 48 h): 4.28 | pIC50 ([5]; 96 h): 4.49 | pIC50 (primary ES cells sRGO1 [6]; sRGO1, 5 h): < 4.00 | pIC50 (primary ES cells sRGO1 [6]; sRGO1, 48 h): 4.60 | AnnexinV staining: Living cells (EMM cells MelDuWi; 24 h): 77,8% | AnnexinV staining: early apop (EMM cells MelDuWi; 24 h): 6,3% | AnnexinV staining: late apop (EMM cells MelDuWi; 24 h): 15,4% | AnnexinV staining: necrotic (EMM cells MelDuWi; 24 h): 0,6% | AnnexinV staining: Living cells (EMM cells MelDuWi; 48 h): 60,6% | AnnexinV staining: early apop (EMM cells MelDuWi; 48 h): 7,5% | AnnexinV staining: late apop (EMM cells MelDuWi; 48 h): 28.2% | AnnexinV staining: necrotic (EMM cells MelDuWi; 48 h): 3,7% | AnnexinV staining: Living cells ([7]; PriFri2, 24 h): 68,0% | AnnexinV staining: early apop ([7]; PriFri2, 24 h): 8,0% | AnnexinV staining: late apop ([7]; PriFri2, 24 h): 22,4% | AnnexinV staining: necrotic ([7]; PriFri2, 24 h): 1,6% | AnnexinV staining: Living cells ([7]; PriFri2, 48 h): 33,1% | AnnexinV staining: early apop ([7]; PriFri2, 48 h): 9,3% | AnnexinV staining: late apop ([7]; PriFri2, 48 h): 54% and 53.6% | AnnexinV staining: necrotic ([7]; PriFri2, 48 h): 4,1% | increase of early apoptotic cells [7, 14]: 5% | increase of late apoptotic cells [7, 14]: 3% | pIC50 ([8]; PriFi2, 5 h): < 4.00 | pIC50 ([8]; PriFi2, 24 h): 4.21 | pIC50 ([8]; PriFi2, 48 h): 4.41 | pIC50 ([8]; PriFi2, 96 h): 4.80 | pIC50 (primary EMM cells eRGO1 [9]; eRGO1, 5 h): < 4.00 | pIC50 (primary EMM cells eRGO1 [9]; eRGO1, 24 h): 4.38 | pIC50 (primary EMM cells eRGO1 [9]; eRGO1, 48 h): 4.60 | pIC50 (primary EMM cells eRGO1 [9]; eRGO1, 96 h): 4.82 | pIC50 ([10]; PriFi1, 5 h): < 4.00 | pIC50 ([10]; PriFi1, 24 h): 4.28 | pIC50 ([10]; PriFi1, 48 h): 4.38 | pIC50 ([10]; PriFi1, 96 h): 4.77 | pIC50 (primary ES cells sRGO2 [11]; sRGO2, 5 h): < 4.00 | pIC50 (primary ES cells sRGO2 [11]; sRGO2, 24 h): 4.42 | pIC50 (primary ES cells sRGO2 [11]; sRGO2, 48 h): 4.54 | pIC50 ([12]; 5 h): < 4.00 | pIC50 ([12]; 24 h): 4.30 | pIC50 ([12]; 48 h): 4.44 | pIC50 ([12]; 96 h): 4.80 | pIC50 (primary ES cells sRGO1 [13]; sRGO1, 5 h): < 4.00 | pIC50 (primary ES cells sRGO1 [13]; sRGO1, 24 h): 4.40 | pIC50 (primary ES cells sRGO1 [13]; sRGO1, 48 h): 4.64
